Measured values: patent US20240041042A1, “1-(PYRIDYL)-5-AZINYLPYRAZOLE DERIVATIVES, AND THEIR USE FOR CONTROL OF UNDESIRED PLANT GROWTH” (Bayer Aktiengesellschaft, priority 2020, published 2024)
Read-outs that look alike come from different tables or passages of the source.

Legend:
Type in all cases: in vivo
[1] = test system: Alopecurus myosuroides (ALOMY); test: Pre-emergence herbicidal action against ALOMY; conditions: scored visually after about 3 weeks, 100% = plants have died
Procedure, shortened: (§1)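 Herbicide applied to soil before seedling emergence, at 600 l/ha spray volume with 0.5% additive and rates up to 320 g/ha. Evaluation: visual percentage effect, about 3 weeks later, greenhouse-grown pots compared with untreated ones.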

[2] = test system: Amaranthus retroflexus (AMARE); test: Pre-emergence herbicidal action against AMARE; conditions: visual scoring after about 3 weeks vs untreated controls
Procedure, shortened: as §1

[3] = test system: Digitaria sanguinalis (DIGSA); test: Pre-emergence herbicidal action against DIGSA
Source text: Seeds of monocotyledonous and dicotyledonous weed plants and crop plants are placed in plastic or organic planting pots and covered with soil. The compounds of the invention, formulated in the form of wettable powders (WP) or as emulsion concentrates (EC), are then applied to the surface of the covering soil as aqueous suspension or emulsion with addition of 0.5% additive at a water application rate equivalent to 600 l/ha. After the treatment, the pots are placed in a greenhouse and kept under good growth conditions for the trial plants. After about 3 weeks, the effect of the preparations is scored visually in comparison with untreated controls as percentages. For example, 100% activity=the plants have died, 0% activity=like control plants.
Tables A1 to A13 below show the effects of selected compounds of the general formula (I) on various harmful plants and at an application rate corresponding to 320 g/ha or lower, which were obtained by the experimental procedure mentioned above. The appendices “a”, “b” and “c” give differentiation by dosage used with otherwise the same harmful plants tested.

[4] = test system: Echinochloa crus-galli (ECHCG); test: Pre-emergence herbicidal action against ECHCG
Procedure, shortened: as §1

Lolium rigidum (LOLRI) = test: Pre-emergence herbicidal action against LOLRI; conditions: dosage 320 g/ha
Procedure, shortened: as §1

[5] = test system: Matricaria inodora (MATIN); test: Pre-emergence herbicidal action against MATIN
Procedure, shortened: as §1

[6] = test system: Pharbitis purpurea (PHBPU); test: Pre-emergence herbicidal action against PHBPU
Procedure, shortened: as §1

[7] = test system: Polygonum convolvulus (POLCO); test: Pre-emergence herbicidal action against POLCO
Procedure, shortened: as §1

Setaria viridis (SETVI) [8] = test: Pre-emergence herbicidal action against SETVI
Procedure, shortened: as §1

[9] = test system: Verconica persica (VERPE); test: Pre-emergence herbicidal action against VERPE; conditions: dosage 320 g/ha
Procedure, shortened: as §1

Viola tricolor (VIOTR) [10] = test: Pre-emergence herbicidal action against VIOTR
Procedure, shortened: as §1

[11] = test system: Abutilon theophrasti (ABUTH); test: Post-emergence herbicidal action against ABUTH; conditions: 320 g/ha, visual rating about 3 weeks after treatment vs untreated controls (100% = plants have died, 0% = like control plants)
Procedure, shortened: (§2)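 Values are percent visual activity (0% like control, 100% plants dead) after about 3 weeks in the greenhouse. Treatment: post-emergence spray at one-leaf stage, 600 l/ha spray volume, 0.5% additive, doses 320 g/ha or lower.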

Avena fatua (AVEFA) [12] = test: Post-emergence herbicidal action against AVEFA; conditions: visual rating about 3 weeks after treatment
Procedure, shortened: as §2

[13] = test system: Digitaria sanguinalis (DIGSA); test: Post-emergence herbicidal action against DIGSA; conditions: visual rating about 3 weeks after treatment
Procedure, shortened: as §2

[14] = test system: Echinochloa crus-galli (ECHCG); test: Post-emergence herbicidal action against ECHCG
Procedure, shortened: as §2

[15] = test system: Matricaria inodora (MATIN); test: Post-emergence herbicidal action against MATIN
Procedure, shortened: as §2

[16] = test system: Pharbitis purpurea (PHBPU); test: Post-emergence herbicidal action against PHBPU
Procedure, shortened: as §2

Setaria viridis (SETVI) [17] = test: Post-emergence herbicidal action against SETVI
Procedure, shortened: as §2

Viola tricolor (VIOTR) [18] = test: Post-emergence herbicidal action against VIOTR
Procedure, shortened: as §2

Oryza sativa (ORYSA) = conditions: crop plant compatibility
Procedure, shortened: (§3)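 Test crops were treated 2 to 3 weeks after sowing, once they reached one leaf, by spraying compound in water with 0.5% additive at 600 l/ha. Visual scoring compared them with untreated controls roughly 3 weeks on, and appendices a, b and c denote different doses.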

Avena fatua (AVEFA) [19] = test: Pre-emergence herbicidal action against AVEFA; conditions: 320 g/ha, visual scoring after about 3 weeks vs untreated controls
Procedure, shortened: as §1

[20] = test system: Alopecurus myosuroides (ALOMY); test: Post-emergence herbicidal action against ALOMY; conditions: 80 g/ha, visual rating about 3 weeks after treatment vs untreated controls (100% = plants have died, 0% = like control plants)
Procedure, shortened: as §2

[21] = test system: Verconica persica (VERPE); test: Post-emergence herbicidal action against VERPE; conditions: dosage 80 g/ha
Procedure, shortened: as §2

Zea mays (ZEAMX) = test system: Zea mays (ZEAMX)
Procedure, shortened: as §3

[22] = 80 g/ha, visual scoring after about 3 weeks vs untreated controls
[23] = 80 g/ha, effect in comparison to untreated controls

`COC(=O)COc1nn(-c2nc(F)ccc2F)c(-c2cncc(F)c2)c1Cl` [Example I-216] was tested, and the “Pre-emergence action against ALOMY” value ([1]; 320 g/ha) was 90%, the “Pre-emergence action against AMARE in %” value ([2]; 80 g/ha) was 90% and the “Pre-emergence action against AMARE in %” value ([2]; 320 g/ha) was 90%. For the same molecule, the “Pre-emergence action against DIGSA in %” value [3, 22] was 90%, the “Pre-emergence action against DIGSA in %” value ([3]; dosage 320 g/ha) was 100% and the “Pre-emergence action against ECHCG in %” value ([4]; dosage 80 g/ha) was 80%. The “Pre-emergence action against ECHCG in %” value ([4]; dosage 320 g/ha) was 100%, the “Pre-emergence action against LOLRI in %” value (Lolium rigidum (LOLRI)) was 80% and the “Pre-emergence action against MATIN in %” value ([5]; dosage 80 g/ha) was 90%. For the same molecule, the “Pre-emergence action against MATIN in %” value ([5]; dosage 320 g/ha) was 90%, the “Pre-emergence action against PHBPU in %” value ([6]; dosage 80 g/ha) was 90% and the “Pre-emergence action against PHBPU in %” value ([6]; dosage 320 g/ha) was 90%. The “Pre-emergence action against POLCO in %” value ([7]; dosage 80 g/ha) was 90%, the “Pre-emergence action against POLCO in %” value ([7]; dosage 320 g/ha) was 90% and the “Pre-emergence action against SETVI in %” value (Setaria viridis (SETVI) [8]; dosage 80 g/ha) was 80%. For the same molecule, the “Pre-emergence action against SETVI in %” value (Setaria viridis (SETVI) [8]; dosage 320 g/ha) was 100%, the “Pre-emergence action against VERPE in %” value [9] was 90% and the “Pre-emergence action against VIOTR in %” value (Viola tricolor (VIOTR) [10]; 320 g/ha, Viola tricolor) was 100%. For the same molecule, the “Pre-emergence action against VIOTR in %” value (Viola tricolor (VIOTR) [10]; dosage 80 g/ha) was 100%, the “Post-emergence action against ABUTH in %” value [11] was 80% and the “Post-emergence action against AVEFA in %” value (Avena fatua (AVEFA) [12]; 320 g/ha) was 80%. The “Post-emergence action against DIGSA in %” value ([13]; 80 g/ha) was 80%, the “Post-emergence action against DIGSA in %” value ([13]; 320 g/ha) was 80% and the “Post-emergence action against ECHCG in %” value ([14]; dosage 80 g/ha) was 80%. For the same molecule, the “Post-emergence action against ECHCG in %” value ([14]; dosage 320 g/ha) was 80%, the “Post-emergence action against MATIN in %” value ([15]; dosage 80 g/ha) was 80% and the “Post-emergence action against MATIN in %” value ([15]; dosage 320 g/ha) was 80%. The “Post-emergence action against PHBPU in %” value ([16]; dosage 80 g/ha) was 80%, the “Post-emergence action against PHBPU in %” value ([16]; dosage 320 g/ha) was 80% and the “Post-emergence action against SETVI in %” value (Setaria viridis (SETVI) [17]; dosage 320 g/ha) was 80%. The “Post-emergence action against VIOTR in %” value (Viola tricolor (VIOTR) [18]; 80 g/ha) was 80%, the “Post-emergence action against VIOTR in %” value (Viola tricolor (VIOTR) [18]; 320 g/ha) was 80% and the “Post-emergence action against ORYSA in %” value (Oryza sativa (ORYSA); [23]) was 10%.

For `COCCOC(=O)COc1nn(-c2ncccc2F)c(-c2ccc(F)nc2)c1Br` [Example I-29], the “Pre-emergence action against ALOMY” value ([1]; 80 g/ha) was 90%, the “Pre-emergence action against ALOMY” value ([1]; 320 g/ha) was 100% and the “Pre-emergence action against AMARE in %” value ([2]; 80 g/ha) was 90%. For the same molecule, the “Pre-emergence action against AMARE in %” value ([2]; 320 g/ha) was 100%, the “Pre-emergence action against AVEFA in %” value (Avena fatua (AVEFA) [19]) was 90% and the “Pre-emergence action against DIGSA in %” value [3, 22] was 100%. The “Pre-emergence action against DIGSA in %” value ([3]; dosage 320 g/ha) was 100%, the “Pre-emergence action against ECHCG in %” value ([4]; dosage 320 g/ha) was 100% and the “Pre-emergence action against LOLRI in %” value (Lolium rigidum (LOLRI)) was 100%. For the same molecule, the “Pre-emergence action against MATIN in %” value ([5]; dosage 320 g/ha) was 100%, the “Pre-emergence action against POLCO in %” value ([7]; dosage 320 g/ha) was 90% and the “Pre-emergence action against SETVI in %” value (Setaria viridis (SETVI) [8]; dosage 80 g/ha) was 90%. The “Pre-emergence action against SETVI in %” value (Setaria viridis (SETVI) [8]; dosage 320 g/ha) was 100%, the “Pre-emergence action against VERPE in %” value [9] was 90% and the “Pre-emergence action against VIOTR in %” value (Viola tricolor (VIOTR) [10]; 320 g/ha, Viola tricolor) was 100%. For the same molecule, the “Pre-emergence action against VIOTR in %” value (Viola tricolor (VIOTR) [10]; dosage 80 g/ha) was 90%, the “Post-emergence action against ALOMY in %” value [20] was 100% and the “Post-emergence action against AVEFA in %” value (Avena fatua (AVEFA) [12]; 80 g/ha) was 80%. The “Post-emergence action against DIGSA in %” value ([13]; 80 g/ha) was 90%, the “Post-emergence action against ECHCG in %” value ([14]; dosage 80 g/ha) was 80% and the “Post-emergence action against MATIN in %” value ([15]; dosage 80 g/ha) was 90%. For the same molecule, the “Post-emergence action against SETVI in %” value (Setaria viridis (SETVI) [17]; dosage 80 g/ha) was 80%, the “Post-emergence action against VERPE in %” value [21] was 80% and the “Post-emergence action against ORYSA in %” value (Oryza sativa (ORYSA); 20 g/ha, effect vs untreated controls) was 10%. For the same molecule, the “Post-emergence action against ORYSA in %” value (Oryza sativa (ORYSA); [23]) was 20%, the “Post-emergence action against ZEAMX in % (crop plant compatibility)” value (Zea mays (ZEAMX); 20 g/ha, ZEAMX, effect in comparison to untreated controls) was 10% and the “Post-emergence action against ZEAMX in %” value (Zea mays (ZEAMX); crop plant compatibility, 80 g/ha, effect vs untreated controls) was 20%.
